From article PMC11242382, “Rapid Screening of Chemical Components in Salvia miltiorrhiza with the Potential to Inhibit Skin Inflammation” (International Journal of Molecular Sciences, 2024)

How the values were obtained:
Type in all cases: biochemical
HAase [1] = target: T1, HAase (Bos taurus, UniProt Q2YDK3); assay: Enzyme kinetics study (Lineweaver–Burk plots); settings: for type of HAase inhibition: Lineweaver–Burk plots; for Kis: from Y-intercept of double inverse curve vs inhibitor concentration
T1 sequence (Q2YDK3 36-553): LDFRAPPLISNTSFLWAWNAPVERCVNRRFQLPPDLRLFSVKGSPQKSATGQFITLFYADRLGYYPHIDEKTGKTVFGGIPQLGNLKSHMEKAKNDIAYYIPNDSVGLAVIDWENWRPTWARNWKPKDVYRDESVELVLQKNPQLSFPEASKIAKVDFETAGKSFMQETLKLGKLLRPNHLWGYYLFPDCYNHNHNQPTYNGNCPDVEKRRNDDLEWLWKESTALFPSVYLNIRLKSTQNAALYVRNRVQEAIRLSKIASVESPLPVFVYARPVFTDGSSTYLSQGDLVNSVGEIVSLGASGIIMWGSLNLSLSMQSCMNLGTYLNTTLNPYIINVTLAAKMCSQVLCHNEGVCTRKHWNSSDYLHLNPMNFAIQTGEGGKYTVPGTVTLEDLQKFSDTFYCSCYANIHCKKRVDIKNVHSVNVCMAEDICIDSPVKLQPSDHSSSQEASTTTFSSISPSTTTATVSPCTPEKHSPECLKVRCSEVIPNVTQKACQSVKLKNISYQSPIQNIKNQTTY
Protocol: We conducted enzyme kinetic studies to explore the inhibitory patterns of the ligands of HAase, employing a method that was previously documented. Based on the earlier HAase inhibition assay, 5 different concentrations of ligands (0, 1/2 × IC50, 1 × IC50, 3/2 × IC50, and 2 × IC50) were reacted with 5 different concentrations of sodium hyaluronate (500, 750, 1000, 1250, and 1500 µM). The reaction rate was monitored within the initial 30 min post-initiation. Grouping the samples by concentration, we derived the corresponding regression equations to construct the Lineweaver–Burk diagram, with the reciprocal of the average reaction rate (1/V) on the ordinate and the reciprocal of the substrate concentration (1/[S]) on the abscissa. From this diagram, we extracted the reciprocal of the transverse intercept (Km) and longitudinal intercept (Vmax) to compute the values of the constants Ki and Kis.

HAase [2] = target: T1, HAase; assay: Combined effects of SAB and RA on HAase (median-effect equation, combination index); settings: for Fa (%): SAB-only group
Protocol: (§1) The inhibition assay of the ligands against HAase was performed, following the Elson–Morgan modified method, and the working concentration of the sample was determined to be 0.5 mg/mL [35, 36, 37]. The assays took place in 10 mL centrifuge tubes. Firstly, 0.5 mL of sample solution and 0.5 mL of HAase were added (500 U/mL) to the tube in a 37 °C water bath for 20 min. Then, 0.1 mL of CaCl2 (2.5 mol/L) solution was added to the tube in a 37 °C water bath for 20 min. Next, 0.5 mL of sodium hyaluronate solution (0.5 mg/mL) was added to the tube at 37 °C in a water bath for 40 min. Afterward, we added 0.5 mL of distilled water, 0.1 mL of NaOH solution, and 0.5 mL of acetylacetone (composed of 50 mL of Na2CO3 (1 M) and 3.5 mL of acetylacetone) to the tube. This mixture was kept in the 37 °C water bath for 15 min and then transferred to an ice bath for 10 min, followed by 10 min at room temperature. Afterward, 1 mL of P-DAB and 4.3 mL of ethanol were added to it. The absorbance was measured at 530 nm after allowing the solution to stand for 30 min. The HAase inhibition rate (R) was calculated using the following formula:(1) R=A0−A/A0×100% where A0 is the absorbance of the control group (without the sample, enzyme solution, and sodium hyaluronate as the drug control), and A is the absorbance of the sample group (with the sample, no enzyme solution, and sodium hyaluronate as the blank control); ascorbic acid was the positive control.
The Fa value for each group is Fa (%) = R* (where R* denotes the mean value of inhibition in the administered group). Neutralization graphs (y = log Fa/Fu, x = logD, and y = ax + b) and the neutralization of the two components in monotherapy and combination were calculated based on the neutralization equation Fa/Fu = (D/Dm)^m. In this equation, Fa is the drug effect, Fu = 1 − Fa, D is the drug concentration, Dm is the neutralization concentration, that is, the concentration of the drug when it exerts 50% of its effect, and m is the slope of the equation of the neutralization curve. Dose was calculated using (logDm = −b/a, a = m) and the corresponding parameters of the equation (slope m and correlation coefficient r, etc.). Then, the CI value of the combined effect was calculated according to the following formula:(2) CI=D1/Dx1+D2/Dx2 where D1 and D2 are the concentrations of each of the two drugs causing the x effect when combined, and Dx1 and Dx2 are the concentrations of each of the two drugs causing the x effect when used alone. […] The quantitative effect-relationship curves of the two drugs individually and after combination were plotted using GraphPad Prism V5.0, with the drug concentration as the horizontal coordinate and the Fa value as the vertical coordinate. The data of the combined action group were simulated using Compusyn V1.0 and the neutral effect equation. The Fa-CI curves were plotted using GraphPad Prism V5.0, with the simulated Fa on the horizontal axis and its corresponding CI value on the vertical axis. This comprehensive analysis aimed to thoroughly evaluate the effects of the 2 drugs following their combined action, based on the provided data.

HAase [3] = target: T1, HAase; assay: HAase inhibition assay (Elson–Morgan modified method)
Protocol: as §1, with “The HAase inhibition rate (R) was calculated using the following formula:(1) R=A0−A/A0×100% where A0 is the absorbance of the control group (without the sample, enzyme solution, and sodium hyaluronate as the drug control), and A is the absorbance of the sample group (with the sample, no enzyme solution, and sodium hyaluronate as the blank control); ascorbic acid was the positive control.” left out

O=C(/C=C/c1ccc(O)c(O)c1)O[C@H](Cc1ccc(O)c(O)c1)C(=O)O [RA, rosmarinic acid]
type of HAase inhibition (HAase [1]): mixed-type inhibitors | Kis (HAase [1]): 4.60 µM | m (slope of the neutralization curve equation) (HAase [2]; median-effect equation): 0.6904

salvianolic acid B [SAB]
type of HAase inhibition (HAase [1]): mixed-type inhibitors | Kis (HAase [1]): 0.96 µM | IC50 against HAase (HAase [3]): 204.15 ± 1.08 µg/mL | Inhibition Rate (%) against HAase (HAase [3]; sample concentration 0.5 mg/mL, mean ± SD (n = 3)): 68.27 ± 0.71% | Fa (%) (HAase [2]; 0.006 mg/mL): 8.30% | Fa (%) (HAase [2]; 0.03 mg/mL): 18.07% | Fa (%) (HAase [2]; 0.06 mg/mL): 22.16% | Fa (%) (HAase [2]; 0.15 mg/mL): 40.98% | Fa (%) (HAase [2]; 0.3 mg/mL): 59.08% | m (slope of the neutralization curve equation) (HAase [2]; median-effect equation): 0.6928 | Dm (median effective concentration) (HAase [2]; median-effect equation, concentration at 50% of effect): 0.2424 mg/mL
